Here are results for two compounds from patent US10647669B2, “Composition containing lutein/lutein ester and applications thereof” (priority 2016, dated 2020).

A short description of this data set: Effect of pH on the stability of lutein/lutein ester (absorbance of acetone aqueous solutions). The format is physicochemical. As to conditions: for Absorbance value: acetone aqueous solution; for Retention: after placing for 96 h at pH 1.5; for Change of absorbance values: under strong acid conditions. The method, then: Effect of pH on the Stability of Lutein/Lutein Ester The acetone aqueous solutions of lutein and lutein ester with pH 1.5 and pH 3 were prepared respectively, and the absorbance values at different time period are shown as follows: […]

Turning to `CC1=C[C@H](O)CC(C)(C)[C@H]1/C=C/C(C)=C/C=C/C(C)=C/C=C/C=C(C)/C=C/C=C(C)/C=C/C1=C(C)C[C@@H](O)CC1(C)C` [Lutein, lutein], the Retention worked out at 17.80% and the “Change of absorbance values” was “decrease significantly”. This compound came in with an Absorbance value (pH 1.5, 0 h) of 0.843. Also, the Absorbance value (pH 1.5, 12 h) came to 0.559. The Absorbance value (pH 1.5, 24 h) amounted to 0.452. In addition, the Absorbance value (pH 1.5, 36 h) turned out to be 0.368. Further, the Absorbance value (pH 1.5, 48 h) stood at 0.267. The same compound displayed an Absorbance value (pH 1.5, 96 h) of 0.151. For the same compound, the Absorbance value (pH 3.0, 0 h) amounted to 0.845. Further, for the setting “pH 3.0, 12 h”, the Absorbance value was found to be 0.566. The compound also showed an Absorbance value (pH 3.0, 24 h) of 0.495. Where the note is “pH 3.0, 36 h”, this compound displayed an Absorbance value of 0.428. The same compound displayed an Absorbance value (pH 3.0, 48 h) of 0.341. Where the note is “pH 3.0, 96 h”, this compound gave an Absorbance value of 0.268.
For lutein ester, the Retention came out at 18.36% and the “Change of absorbance values” is listed as “decrease significantly”. Also, the Absorbance value (pH 1.5, 0 h) was 0.844. Besides, the Absorbance value (pH 1.5, 12 h) is 0.588. The Absorbance value (pH 1.5, 24 h) is listed as 0.466. Further, for the setting “pH 1.5, 36 h”, the Absorbance value is 0.377. In addition, the Absorbance value (pH 1.5, 48 h) is given as 0.259. Where the note is “pH 1.5, 96 h”, this compound displayed an Absorbance value of 0.155. The same compound returned an Absorbance value (pH 3.0, 0 h) of 0.837. Under “pH 3.0, 12 h”, this compound showed an Absorbance value of 0.597. For the setting “pH 3.0, 24 h”, this compound registered an Absorbance value of 0.502. This compound gave an Absorbance value (pH 3.0, 36 h) of 0.439. For the setting “pH 3.0, 48 h”, this compound showed an Absorbance value of 0.356. The same compound came in with an Absorbance value (pH 3.0, 96 h) of 0.274.
